# Read-outs that look alike come from different tables or passages of the source.
# Assays:
# human α1B-adrenoceptor = biological target: T1, human α1B-adrenoceptor (Homo sapiens, UniProt P35368); test: [3H]prazosin whole-cell competition binding, CHO-α1B cells; details: for Kd: read-out: Log KD α1B (converted)
# T1 construct: CHO cells stably expressing either the full‐length human α1A, α1B, or α1D‐adrenoceptor
# T1 sequence (P35368 1-520): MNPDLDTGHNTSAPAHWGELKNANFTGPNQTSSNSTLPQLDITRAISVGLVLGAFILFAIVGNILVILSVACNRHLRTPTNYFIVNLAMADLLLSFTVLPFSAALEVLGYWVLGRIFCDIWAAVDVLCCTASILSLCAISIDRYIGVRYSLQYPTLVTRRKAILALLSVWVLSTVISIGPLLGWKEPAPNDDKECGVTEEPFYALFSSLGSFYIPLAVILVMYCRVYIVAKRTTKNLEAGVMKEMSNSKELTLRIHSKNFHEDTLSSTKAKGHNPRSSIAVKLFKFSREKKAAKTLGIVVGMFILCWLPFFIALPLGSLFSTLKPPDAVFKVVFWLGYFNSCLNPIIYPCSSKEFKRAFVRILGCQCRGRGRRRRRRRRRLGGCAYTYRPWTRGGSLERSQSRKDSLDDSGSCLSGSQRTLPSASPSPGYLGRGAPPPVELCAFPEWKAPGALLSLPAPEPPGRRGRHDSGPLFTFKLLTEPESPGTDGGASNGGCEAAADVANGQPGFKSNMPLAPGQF
# human α1A-adrenoceptor = biological target: T2, human α1A-adrenoceptor (Homo sapiens, UniProt P35348); test: [3H]prazosin whole-cell competition binding, CHO-α1A cells
# T2 construct: CHO cells stably expressing either the full‐length human α1A, α1B, or α1D‐adrenoceptor
# T2 sequence (P35348 1-466): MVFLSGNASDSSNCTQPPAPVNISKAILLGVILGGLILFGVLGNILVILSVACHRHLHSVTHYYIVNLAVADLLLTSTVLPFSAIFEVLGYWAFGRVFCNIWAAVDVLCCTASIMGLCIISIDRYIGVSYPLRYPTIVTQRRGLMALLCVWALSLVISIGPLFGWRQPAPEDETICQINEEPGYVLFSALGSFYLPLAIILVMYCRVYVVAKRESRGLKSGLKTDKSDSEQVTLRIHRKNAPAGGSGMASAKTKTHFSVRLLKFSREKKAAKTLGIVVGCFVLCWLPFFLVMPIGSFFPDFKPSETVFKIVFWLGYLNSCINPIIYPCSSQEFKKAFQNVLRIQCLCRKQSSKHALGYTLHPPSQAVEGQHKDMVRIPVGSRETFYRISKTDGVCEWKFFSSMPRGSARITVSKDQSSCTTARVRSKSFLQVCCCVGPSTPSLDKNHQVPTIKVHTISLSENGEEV
# [1] = biological target: T3, full-length human α1D-adrenoceptor (Homo sapiens, UniProt P25100); test: [3H]prazosin whole-cell competition binding, CHO-α1D cells; details: for Kd: Log KD α1D
# T3 sequence (P25100 1-572): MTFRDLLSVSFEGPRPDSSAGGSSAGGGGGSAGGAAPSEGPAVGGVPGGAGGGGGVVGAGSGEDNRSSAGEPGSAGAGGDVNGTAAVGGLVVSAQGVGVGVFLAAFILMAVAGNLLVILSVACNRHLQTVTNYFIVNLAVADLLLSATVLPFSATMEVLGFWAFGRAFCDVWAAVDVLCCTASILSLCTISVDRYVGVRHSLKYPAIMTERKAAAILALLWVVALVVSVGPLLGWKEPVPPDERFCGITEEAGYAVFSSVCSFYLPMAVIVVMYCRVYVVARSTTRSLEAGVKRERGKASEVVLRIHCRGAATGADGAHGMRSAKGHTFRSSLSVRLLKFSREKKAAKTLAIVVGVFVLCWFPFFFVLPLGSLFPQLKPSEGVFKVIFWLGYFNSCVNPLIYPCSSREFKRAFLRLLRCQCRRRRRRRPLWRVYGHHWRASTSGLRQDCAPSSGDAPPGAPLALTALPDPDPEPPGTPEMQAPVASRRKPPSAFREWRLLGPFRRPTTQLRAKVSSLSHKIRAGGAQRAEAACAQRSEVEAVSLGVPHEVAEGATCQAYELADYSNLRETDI
# [2] = single-component inhibition curve, given as log KD (negative), mean ± SE mean
# [3] = percentage of inhibition through first component, control
# [4] = ratio, 1 = no selectivity for a subtype over another
# [5] = ratio of KD values, higher α1D affinity (site 1 KD)
# [6] = ratio of KD values, higher α1B affinity, 1.0 under vs = none
# [7] = ratio of KD values, higher α1A affinity, 1.0 under vs = none
# [8] = ratio of KD values, printed under α1A = higher α1A affinity, 1.0 under vs = none
# [9] = single-component inhibition curve, given as log KD (negative), mean ± SE mean, read-out: Log KD α1A (converted)
# [10] = log KD from 3H-prazosin whole cell binding, CHO cells, mean ± s.e.mean
# [11] = two-component inhibition curve, proportion of site 1
SMILES,Log KD α1A (human α1A-adrenoceptor; [2]),selectivity α1B vs α1D (human α1B-adrenoceptor; [4]),Kd (human α1B-adrenoceptor; [2]) [µM],"Kd [1, 2] [µM]","Selectivity ratio α1B vs α1D [1, 5] [fold]",Selectivity ratio α1A vs α1D (human α1A-adrenoceptor; [7]) [fold],Selectivity ratio α1A vs α1B (human α1A-adrenoceptor; [8]) [fold],Selectivity ratio α1A vs α1B (human α1A-adrenoceptor) [fold],Selectivity ratio α1A vs α1D (human α1A-adrenoceptor) [fold],Kd (human α1A-adrenoceptor; [9]) [µM],further results
COc1ccccc1N1CCN(CCCNc2c(C)c(=O)n(C)c(=O)n2C)CC1 [5‐methyl‐urapidil],−8.23 ± 0.05,,,,,,,148,417,,"Log KD α1B (human α1B-adrenoceptor): −6.06 ± 0.04; Selectivity ratio α1B vs α1D (human α1B-adrenoceptor): 2.8 fold; Log KD α1D [1, 2]: −5.61 ± 0.07"
CC(C)(C)NCC(O)COc1cccc2[nH]c(=O)[nH]c12 (stereo not shown) [CGP12177],,,,63.1,>1.6,8.7,>14,,,7.24,IC50 (human α1B-adrenoceptor; read-out: Log IC50 α1B (converted)): > 100 µM
O=C1Nc2ccccc2C2=NC(CN3CCN(c4ccccc4)CC3)CN12 (stereo not shown) [2-PMDQ],,,,,,,,,,,"Log KD α1B (human α1B-adrenoceptor; [10]): -6.95 ± 0.05; Log KD α1A (human α1A-adrenoceptor; [10]): -8.19 ± 0.09; % site 1 α1D ([1]; share of site 1 in the two-component inhibition curve): 57.6 ± 2.8%; % site 1 α1D [1, 11]: 57.6 ± 2.8%"
Cc1c[nH]c(=O)n(CCCN2CCN(c3ccccc3OCC(F)(F)F)CC2)c1=O [RS100329],−9.60 ± 0.05,9.1,,,9.1,93,851,,,,"Log KD α1B (human α1B-adrenoceptor; [2]): −6.67 ± 0.07; Kd (human α1A-adrenoceptor; subtype not given, ligands with α1A selectivity (Table 1: α1A), read-out: affinity): < 0.00025 µM; Log KD α1D site 1 ([1]; high-affinity component of two-component curve, control, used for selectivity): −7.63 ± 0.17; Log KD α1D site 2 ([1]; low-affinity component of two-component curve, control): −5.13 ± 0.15; % site 1 α1D [1, 3]: 70.5 ± 3.0% site 1; % site 1 α1D [1, 11]: -7.63 ± 0.17 -5.13 ± 0.15 70.5 ± 3.0% site 1"
COC1(C2=NCCN2)COc2ccccc2O1 (stereo not shown) [RX 821002],,1.4,,,,,,,,,"Log KD α1B (human α1B-adrenoceptor; [10]): -5.46 ± 0.06; Log KD α1A (human α1A-adrenoceptor; [10]): -6.51 ± 0.09; selectivity α1A vs 1D (human α1A-adrenoceptor; [4]): 16; selectivity α1A vs α1B (human α1A-adrenoceptor; [4]): 11; Log KD α1D [1, 10]: -5.31 ± 0.13"
CN[C@H]1CC[C@@H](c2ccc(Cl)c(Cl)c2)c2ccccc21 [Sertraline],,,3.55,2.45,,,,1.9,1.3,1.91,selectivity α1B vs α1D (human α1B-adrenoceptor): 1.4; Selectivity ratio α1B vs α1D [1]: 1.4 fold

# The next lines start with results.
Log KD α1A (human α1A-adrenoceptor; [2]),selectivity α1B vs α1D (human α1B-adrenoceptor; [4]),Kd (human α1B-adrenoceptor; [2]) [µM],"Kd [1, 2] [µM]","Selectivity ratio α1B vs α1D [1, 5] [fold]",Selectivity ratio α1A vs α1D (human α1A-adrenoceptor; [7]) [fold],Selectivity ratio α1A vs α1B (human α1A-adrenoceptor; [8]) [fold],SMILES,Selectivity ratio α1A vs α1B (human α1A-adrenoceptor) [fold],Selectivity ratio α1A vs α1D (human α1A-adrenoceptor) [fold],Kd (human α1A-adrenoceptor; [9]) [µM],further results
−9.06 ± 0.07,,,,,,,COc1ccccc1N1CCN(CC2CN3C(=O)N(C)c4ccccc4C3=N2)CC1 (stereo not shown) [2‐MPMDQ],,,,"Log KD α1B (human α1B-adrenoceptor; [2]): −7.37 ± 0.04; % site 1 α1D [1, 3]: 64.0 ± 2.1% site1"
,1.1,0.603,0.562,1.1,,,CN(C)CCC=C1c2ccccc2CCc2ccccc21 [Amitriptyline],93,87,,"selectivities α1A vs α1B (human α1A-adrenoceptor): 93; selectivity α1A vs α1B (human α1A-adrenoceptor): 93; Kd (human α1A-adrenoceptor; Log KD α1A, single-component inhibition curve, given as log KD (negative), mean ± SE mean): 0.00646 µM"
,,0.871,1.78,,18,8.7,CC(CN1c2ccccc2Sc2ccccc21)N(C)C (stereo not shown) [Promethazine],,,0.1,Selectivity ratio α1B vs α1D (human α1B-adrenoceptor; [6]): 2.0 fold
,,3.63,4.27,,37,32,CN(CCCN1c2ccccc2CCc2ccccc21)CC(=O)c1ccc(Cl)cc1 [Lofepramine],,,0.115,Selectivity ratio α1B vs α1D (human α1B-adrenoceptor; [6]): 1.2 fold
